# Source: US20150174081A1, “LIQUID PHARMACEUTICAL COMPOSITION COMPRISING NITISINONE” (Swedish Orphan Biovitrum International AB, priority 2011, published 2015)
# Experiments:
# [1] = Particle size diameter (PSD) of nitisinone before and after air-jet micronization; format: physicochemical
# Source text: A lab-scale air-jet mill, 2 inches qualification model, Sturtevant Inc., was used to micronize nitisinone obtained from the company Bachem, Switzerland. The mill was operated with tangential flow (i.e. the air and drug are fed in the same direction in the milling chamber). The unmilled drug was fed into the mill using a Venturi feed system, Syncron®, Magnet Feeder model F-TO-C, where air was used to draw the feed material into the milling chamber. A product filter bag was affixed to the outlet of the mill, through which the exhausts and the milled drug collects. The milling conditions were set as follows: • Grind air: Dry nitrogen gas • Grind pressure: 90 psi • Feed pressure: 85 psi • Room conditions: Ambient 5 g of the API was passed through the lab-scale micronizer and the resulting material was collected (3.7 g). The material was analyzed for/by particle size diameter (PSD), assay and purity by high performance liquid chromatography (HPLC), x-ray powder diffraction (XRPD), differential scanning calorimetry (DSC) and polarized light microscopy (PLM).
# [2] = Stability of oxotetrahydroxanthenone solutions, LC-MS; format: physicochemical
# Experimental: The stability study of the main degradation product in Example 6, oxotetrahydroxanthenone, is performed under similar conditions as described in Example 6. Samples of oxotetrahydroxanthenone (OTHX), 81 μg/ml in either citrate buffer pH 3.0 or phosphate buffer pH 6.8, were put on stability at +5° C., +25° C. and +37° C., respectively, for 6 months. The concentrations of OTHX and the secondary degradation products 1,3-cyclohexanedione (CHD) and 4-(trifluoromethyl)salicylic acid (TSA) were analyzed by LC-MS. The results, shown in Table XI, below, are expressed as percent of the initial concentration of OTHX. The mass balance expressed as the total recovery of CHD+OTHX+TSA compared to the initial concentration of OTHX were calculated from MmOTHX/(Mm CHD+MmTSA)×(CHDconc+TSAconc)+OTHXconc expressed in μg/ml where MmOTHX, MmCHD and MmTSA are the molecular masses corresponding to 282, 202 and 206 g/mol, respectively.
# [3] = Citrate buffer pH 3.0, 5° C., 1.8 months
# [4] = Citrate buffer pH 3.0, 5° C., 3 months
# [5] = Citrate buffer pH 3.0, 5° C., 6 months
# [6] = Citrate buffer pH 3.0, 25° C., 1.8 months
# [7] = Citrate buffer pH 3.0, 25° C., 3 months
# [8] = Citrate buffer pH 3.0, 25° C., 6 months
# [9] = Citrate buffer pH 3.0, 37° C., 1.8 months
# [10] = Citrate buffer pH 3.0, 37° C., 3 months
# [11] = Citrate buffer pH 3.0, 37° C., 6 months
# [12] = Phosphate buffer pH 6.8, 5° C., 1.8 months
# [13] = Phosphate buffer pH 6.8, 5° C., 3 months
# [14] = Phosphate buffer pH 6.8, 5° C., 6 months
# [15] = Phosphate buffer pH 6.8, 25° C., 1.8 months
# [16] = Phosphate buffer pH 6.8, 25° C., 3 months
# [17] = Phosphate buffer pH 6.8, 25° C., 6 months
# [18] = Phosphate buffer pH 6.8, 37° C., 1.8 months
# [19] = Phosphate buffer pH 6.8, 37° C., 3 months
# [20] = Phosphate buffer pH 6.8, 37° C., 6 months
smiles,measurement,setting,value
"O=C1CCCC(=O)C1C(=O)c1ccc(C(F)(F)F)cc1[N+](=O)[O-] [Micronized material, 2-(2-nitro-4-trifluoromethylbenzoyl)-1,3-cyclohexanedione]",Particle size diameter d10,[1],0.30 microns
same,Particle size diameter d20,[1],0.47 microns
same,Particle size diameter d50,[1],1.29 microns
same,Particle size diameter d80,[1],2.59 microns
same,Particle size diameter d90,[1],3.59 microns
"O=C1CCCc2oc3cc(C(F)(F)F)ccc3c(=O)c21 [OTHX, 6-(trifluoromethyl)-3,4-dihydro-1H-xanthenene-1,9(2H)-dione]",Concentration of OTHX,[2]; [3],96.7% of the initial concentration of OTHX
same,Concentration of secondary degradation product CHD,[2]; [3],0.0% of the initial concentration of OTHX
same,Concentration of secondary degradation product TSA,[2]; [3],0.0% of the initial concentration of OTHX
same,Concentration of OTHX,[2]; [4],96.9% of the initial concentration of OTHX
same,Concentration of secondary degradation product CHD,[2]; [4],0.0% of the initial concentration of OTHX
same,Concentration of secondary degradation product TSA,[2]; [4],0.0% of the initial concentration of OTHX
same,Concentration of OTHX,[2]; [5],91.6% of the initial concentration of OTHX
same,Concentration of secondary degradation product CHD,[2]; [5],0.0% of the initial concentration of OTHX
same,Concentration of secondary degradation product TSA,[2]; [5],0.0% of the initial concentration of OTHX
same,Concentration of OTHX,[2]; [6],96.7% of the initial concentration of OTHX
same,Concentration of secondary degradation product CHD,[2]; [6],0.0% of the initial concentration of OTHX
same,Concentration of secondary degradation product TSA,[2]; [6],0.0% of the initial concentration of OTHX
same,Concentration of OTHX,[2]; [7],102.7% of the initial concentration of OTHX
same,Concentration of secondary degradation product CHD,[2]; [7],0.0% of the initial concentration of OTHX
same,Concentration of secondary degradation product TSA,[2]; [7],0.0% of the initial concentration of OTHX
same,Concentration of OTHX,[2]; [8],92.3% of the initial concentration of OTHX
same,Concentration of secondary degradation product CHD,[2]; [8],0.0% of the initial concentration of OTHX
same,Concentration of secondary degradation product TSA,[2]; [8],0.0% of the initial concentration of OTHX
same,Concentration of OTHX,[2]; [9],97.9% of the initial concentration of OTHX
same,Concentration of secondary degradation product CHD,[2]; [9],0.0% of the initial concentration of OTHX
same,Concentration of secondary degradation product TSA,[2]; [9],0.2% of the initial concentration of OTHX
same,Concentration of OTHX,[2]; [10],97.7% of the initial concentration of OTHX
same,Concentration of secondary degradation product CHD,[2]; [10],0.0% of the initial concentration of OTHX
same,Concentration of secondary degradation product TSA,[2]; [10],0.0% of the initial concentration of OTHX
same,Concentration of OTHX,[2]; [11],95.3% of the initial concentration of OTHX
same,Concentration of secondary degradation product CHD,[2]; [11],0.0% of the initial concentration of OTHX
same,Concentration of secondary degradation product TSA,[2]; [11],0.0% of the initial concentration of OTHX
same,Concentration of OTHX,[2]; [12],96.7% of the initial concentration of OTHX
same,Concentration of secondary degradation product CHD,[2]; [12],0.0% of the initial concentration of OTHX
same,Concentration of secondary degradation product TSA,[2]; [12],1.4% of the initial concentration of OTHX
same,Concentration of OTHX,[2]; [13],91.0% of the initial concentration of OTHX
same,Concentration of secondary degradation product CHD,[2]; [13],0.7% of the initial concentration of OTHX
same,Concentration of secondary degradation product TSA,[2]; [13],1.9% of the initial concentration of OTHX
same,Concentration of OTHX,[2]; [14],83.1% of the initial concentration of OTHX
same,Concentration of secondary degradation product CHD,[2]; [14],0.0% of the initial concentration of OTHX
same,Concentration of secondary degradation product TSA,[2]; [14],0.0% of the initial concentration of OTHX
same,Concentration of OTHX,[2]; [15],74.8% of the initial concentration of OTHX
same,Concentration of secondary degradation product CHD,[2]; [15],7.7% of the initial concentration of OTHX
same,Concentration of secondary degradation product TSA,[2]; [15],13.0% of the initial concentration of OTHX
same,Concentration of OTHX,[2]; [16],63.2% of the initial concentration of OTHX
same,Concentration of secondary degradation product CHD,[2]; [16],9.7% of the initial concentration of OTHX
same,Concentration of secondary degradation product TSA,[2]; [16],20.2% of the initial concentration of OTHX
same,Concentration of OTHX,[2]; [17],44.8% of the initial concentration of OTHX
same,Concentration of secondary degradation product CHD,[2]; [17],25.2% of the initial concentration of OTHX
same,Concentration of secondary degradation product TSA,[2]; [17],36.4% of the initial concentration of OTHX
same,Concentration of OTHX,[2]; [18],33.5% of the initial concentration of OTHX
same,Concentration of secondary degradation product CHD,[2]; [18],22.2% of the initial concentration of OTHX
same,Concentration of secondary degradation product TSA,[2]; [18],38.6% of the initial concentration of OTHX
same,Concentration of OTHX,[2]; [19],13.7% of the initial concentration of OTHX
same,Concentration of secondary degradation product CHD,[2]; [19],21.5% of the initial concentration of OTHX
same,Concentration of secondary degradation product TSA,[2]; [19],49.1% of the initial concentration of OTHX
same,Concentration of OTHX,[2]; [20],0.4% of the initial concentration of OTHX
same,Concentration of secondary degradation product CHD,[2]; [20],32.8% of the initial concentration of OTHX
same,Concentration of secondary degradation product TSA,[2]; [20],66.4% of the initial concentration of OTHX
"O=C1CCCC(=O)C1C(=O)c1ccc(C(F)(F)F)cc1[N+](=O)[O-] [Start material, 2-(2-nitro-4-trifluoromethylbenzoyl)-1,3-cyclohexanedione]",Particle size diameter d10,[1],20.50 microns
same,Particle size diameter d20,[1],33.10 microns
same,Particle size diameter d50,[1],60.01 microns
same,Particle size diameter d80,[1],94.42 microns
same,Particle size diameter d90,[1],115.11 microns
